The target in test [1] is T1, Orexin type 1 (OX1R) receptor (Homo sapiens, UniProt O43613).
T1 construct: expressed in transfected cells; host or cells: CHO cells (G418 selection)
T1 sequence (O43613 1-425): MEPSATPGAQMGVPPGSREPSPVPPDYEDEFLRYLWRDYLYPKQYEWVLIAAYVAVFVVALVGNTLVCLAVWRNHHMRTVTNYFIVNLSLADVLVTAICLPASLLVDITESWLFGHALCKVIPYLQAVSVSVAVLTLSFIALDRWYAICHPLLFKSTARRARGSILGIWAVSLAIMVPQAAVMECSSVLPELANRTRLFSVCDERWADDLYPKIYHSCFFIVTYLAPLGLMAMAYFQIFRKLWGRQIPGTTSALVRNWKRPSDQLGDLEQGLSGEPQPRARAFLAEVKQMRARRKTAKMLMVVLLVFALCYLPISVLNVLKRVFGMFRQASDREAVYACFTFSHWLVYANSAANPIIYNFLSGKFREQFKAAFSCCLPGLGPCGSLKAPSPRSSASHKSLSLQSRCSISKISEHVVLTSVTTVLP
Put plainly: In vitro orexin antagonism assay: intracellular calcium measurement (FLIPR), orexin-A 3 nM as agonist. It counts as cell-based. To be noted: for IC50: first value of IC50/Kb cell; for Kb: second value of IC50/Kb cell; for inhibition at 1 µM: read-out: OX1R, % Inh. @ 1 uM. As to the method: (§1) In Vitro Orexin Antagonism Measurement Assay: Intracellular Calcium Measurements:
(§2) Chinese hamster ovary (CHO) cells expressing the human […] and the human orexin-2 receptor, respectively, are grown in culture medium (Ham F-12 with L-Glutamine) containing 300 μg/mL G418, 100 U/mL penicillin, 100 μg/mL streptomycin and 10% heat inactivated fetal calf serum (FCS). The cells are seeded at 20,000 cells/well into 384-well black clear bottom sterile plates (Greiner). The seeded plates are incubated overnight at 37° C. in 5% 002. Human orexin-A as an agonist is prepared as 1 mM stock solution in MeOH: water (1:1), diluted in HBSS containing 0.1% bovine serum albumin (BSA), NaHCO3: 0.375 g/L and 20 mM HEPES for use in the assay at a final concentration of 3 nM.
(§3) Antagonists are prepared as 10 mM stock solution in DMSO, then diluted in 384-well plates using DMSO followed by a transfer of the dilutions into in HBSS containing 0.1% bovine serum albumin (BSA), NaHCO3: 0.375 g/L and 20 mM HEPES. On the day of the assay, 50 μL of staining buffer (HBSS containing 1% FCS, 20 mM HEPES, NaHCO3: 0.375 g/L, 5 mM probenecid (Sigma) and 3 μM of the fluorescent calcium indicator fluo-4 AM (1 mM stock solution in DMSO, containing 10% pluronic) is added to each well. The 384-well cell-plates are incubated for 50 min at 37° C. in 5% CO2 followed by equilibration at RT for 30 min before measurement.
(§4) Within the Fluorescent Imaging Plate Reader (FLIPR Tetra, Molecular Devices), antagonists are added to the plate in a volume of 10 μL/well, incubated for 120 min and finally 10 μL/well of agonist is added. Fluorescence is measured for each well at 1 second intervals, and the height of each fluorescence peak is compared to the height of the fluorescence peak induced by 3 nM orexin-A with vehicle in place of antagonist. The IC50 value (the concentration of compound needed to inhibit 50% of the agonistic response) is determined and may be normalized using the obtained IC50 value of an on-plate reference compound. Optimized conditions were achieved by adjustment of pipetting speed and cell splitting regime. The calculated IC50values may fluctuate depending on the daily cellular assay performance. Fluctuations of this kind are known to those skilled in the art.

For test [2], the target named is T2, human orexin-2 receptor (OX2R) (Homo sapiens, UniProt O43614).
T2 construct: expressed in transfected cells; host or cells: CHO cells (G418 selection)
T2 sequence (O43614 1-444): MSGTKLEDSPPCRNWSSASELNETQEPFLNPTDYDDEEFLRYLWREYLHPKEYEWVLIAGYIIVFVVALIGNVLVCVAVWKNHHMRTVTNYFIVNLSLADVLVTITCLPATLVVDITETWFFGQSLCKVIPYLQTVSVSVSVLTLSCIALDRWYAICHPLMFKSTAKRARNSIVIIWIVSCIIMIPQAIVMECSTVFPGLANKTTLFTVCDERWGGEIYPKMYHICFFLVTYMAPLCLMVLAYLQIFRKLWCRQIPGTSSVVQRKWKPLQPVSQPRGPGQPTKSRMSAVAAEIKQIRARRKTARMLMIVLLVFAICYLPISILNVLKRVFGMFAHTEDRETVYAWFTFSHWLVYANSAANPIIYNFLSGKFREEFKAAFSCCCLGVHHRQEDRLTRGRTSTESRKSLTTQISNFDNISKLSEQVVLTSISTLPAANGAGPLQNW
The description is as above. To be noted: for inhibition at 1 µM: read-out: OX2R, % Inh. @ 1 uM; for IC50: first value of IC50/Kb cell; for Kb: second value of IC50/Kb cell. It counts as cell-based. As to the method: Antagonistic activities on both orexin receptors have been measured for each example compound using the following procedure:
as §1, §2, §3
as §4, with “art. In the case where IC50values have been determined several times for the same compound, the geometric mean has been given.” for “art.”

Experimental findings from patent US20260070922A1, “PYRAZOLE AND IMIDAZOLE DERIVATIVES AS DUAL OREXIN AND KAPPA-OPIOID RECEPTORS MODULATORS COMPOSITION, METHODS FOR TREATING NEUROLOGICAL AND PSYCHIATRIC DISORDERS” (HAGER BIOSCIENCES, LLC, priority 2022, published 2026) are described below.

On to `O=C(c1c(-c2ccccc2)nn2c1COCC2)N1CCC[C@H]1CNc1ccc(C(F)(F)F)cn1` [Example 2], for which the IC50 in test [1] turned out to be 120 nM.

Turning to `CCc1cnc(NC[C@@H]2[C@H](C)CCCN2C(=O)c2c(-c3ccccc3)nn3c2COCC3)nc1` [Example 5], the IC50 in test [1] is 140 nM.

Turning to `C[C@@H]1CCCN(C(=O)c2c(-c3ccccc3)nn3ccccc23)[C@@H]1CNc1ccc(C(F)(F)F)cn1` [Example 6], in test [1], the Kb was 2 nM.

`CCc1cnc(NC[C@@H]2CCCN2C(=O)c2c(-c3ccccc3)nn3ccccc23)nc1` [Example 15]: in test [1], the IC50 came to 180 nM and the Kb came out at 38 nM.

Regarding `O=C(c1c(-c2ccccc2)nc2ccccn12)N1CCC[C@H]1COc1ccc(C(F)(F)F)cn1` [Example 18], the IC50 in test [1] worked out at 290 nM.

In the case of `C[C@@H]1CCCN(C(=O)c2c(-c3ccccc3)nn3ccccc23)[C@@H]1CNc1ncc(F)cn1` [Example 22], in test [1], the IC50 is 10 nM, the inhibition at 1 µM was 82.2% and the Kb turned out to be 2 nM. Moreover, the inhibition at 1 µM in test [2] was -3%.

Regarding `O=C(c1c(-c2ccccc2)nn2ccccc12)N1CCC[C@H]1CNc1ncc(F)cn1` [Example 23], the inhibition at 1 µM was 23% in test [1] and 13.5% in test [2].

In the case of `O=C(c1c(-c2ccccc2)nn2ccccc12)N1CCCC[C@H]1CNc1ccc(C(F)(F)F)cn1` [Example 25], in test [1], the IC50 was found to be 17 nM, the inhibition at 1 µM was 99.8% and the Kb is 4 nM. In test [2], the IC50 is 74 nM, the inhibition at 1 µM was found to be 72% and the Kb was 10 nM.

Take `O=C(c1c(-c2ccccc2)nc2ccccn12)N1CCCC[C@H]1CNc1ccc(C(F)(F)F)cn1` [Example 26]: in test [1], the IC50 came out at 14 nM, the inhibition at 1 µM worked out at 99.5% and the Kb is 3 nM. Further, the inhibition at 1 µM in test [2] amounted to 39.4%.

For `O=C(c1c(-c2ccccc2)nn2c1COCC2)N1CCCC[C@H]1CNc1ccc(C(F)(F)F)cn1` [Example 27], in test [1], the IC50 is 9 nM, the inhibition at 1 µM was 99% and the Kb was found to be 2 nM. In test [2], the inhibition at 1 µM came to 50.4%.

For `O=C(c1nn2ccccc2c1-c1ccccc1)N1CCC[C@H]1COc1ccc(C(F)(F)F)cn1` [Example 28], in test [1], the IC50 amounted to 4 nM, the inhibition at 1 µM was 98.4% and the Kb came out at 1 nM. Also, in test [2], the inhibition at 1 µM is 52.5%.

For `O=C(c1nn2ccccc2c1-c1ccccc1)N1CCC[C@H]1CNc1ccc(C(F)(F)F)cn1` [Example 29], in test [1], the IC50 is 5 nM, the inhibition at 1 µM came to 99.5% and the Kb was 1 nM. Also, in test [2], the IC50 was 35 nM, the inhibition at 1 µM turned out to be 84.1% and the Kb is 5 nM.

With `O=C(c1c(-c2ccccc2)nn2ccccc12)N1CCC[C@H]1CNc1ccc(F)cn1` [Example 30], the inhibition at 1 µM in test [1] came out at 32.5%; in test [2] it was 14.8%.

Turning to `O=C(c1c(-c2ccccc2)nc2ncccn12)N1CCC[C@H]1CNc1ccc(F)cn1` [Example 31], the values for the inhibition at 1 µM in test [1] and in test [2] were 4.7% and -3.4%, respectively.

For the compound `O=C(c1c(-c2ccccc2)nc2ncccn12)N1CCC[C@H]1CNc1ccc(C(F)(F)F)cn1` [Example 32], the inhibition at 1 µM in test [1] worked out at 19.7%; in test [2] it was 3.6%.

As for `O=C(c1c(-c2ccccc2)nc2ccccn12)N1CCC[C@H]1CNc1ccc(F)cn1` [Example 33], the inhibition at 1 µM in test [1] amounted to 4.8%; in test [2] it was 0.7%.

For the compound `O=C(c1c(-c2ccccc2)nc2ncccn12)N1CCC[C@H]1Cn1ccc(-c2ccccc2)n1` [Example 35], the inhibition at 1 µM is 54.8% in test [1] and 23.7% in test [2].

As to `O=C(c1c(-c2ccccc2)nc2cnccn12)N1CCC[C@H]1CNc1ccc(C(F)(F)F)cn1` [Example 36], the inhibition at 1 µM in test [1] was found to be 53.7%; in test [2], 14.7%.

On to `O=C(c1c(-c2ccccc2)nn2ccccc12)N1CCC[C@H]1COc1ccc(Br)nc1` [Example 37], for which the inhibition at 1 µM in test [1] worked out at 25.4%; in test [2], 10.4%.

As for `O=C(c1c(-c2ccccc2)nc2ccccn12)N1CCC[C@H]1COc1ccc(Br)nc1` [Example 38], the inhibition at 1 µM in test [1] was 8.2%; in test [2] it was -6.1%.

`O=C(c1c(-c2ccccc2)nc2cnccn12)N1CCC[C@H]1COc1ccc(C(F)(F)F)nc1` [Example 39]: the results for the inhibition at 1 µM in test [1] and in test [2] were 39.4% and 7.9%, respectively.

`O=C(c1c(-c2ccc(F)cc2)nn2ccccc12)N1CCC[C@H]1CNc1ccc(F)cn1` [Example 41]: the inhibition at 1 µM was 45.6% in test [1] and 3.2% in test [2].

For the compound `O=C(c1c(-c2ccc(F)cc2)nn2ccccc12)N1CCC[C@H]1CNc1ccc(C(F)(F)F)cn1` [Example 42], in test [1], the IC50 came to 12 nM, the inhibition at 1 µM came out at 98.2% and the Kb was found to be 3 nM. Further, in test [2], the inhibition at 1 µM worked out at 39.4%.

Take `O=C(c1c(-c2ccc(F)cc2)nn2ccccc12)N1CCC[C@H]1COc1ccc(C(F)(F)F)cn1` [Example 43]: in test [1], the IC50 was 9 nM, the inhibition at 1 µM worked out at 93.1% and the Kb is 2 nM. Moreover, the inhibition at 1 µM in test [2] amounted to 28.3%.

On to `O=C(c1c(-c2ccccc2)nc2ccccn12)N1CCCC[C@H]1COc1ccc(C(F)(F)F)cn1` [Example 45], for which, in test [1], the IC50 amounted to 4 nM, the inhibition at 1 µM worked out at 98.7% and the Kb came out at 0.9 nM. Further, the inhibition at 1 µM in test [2] was found to be 38.8%.

With `O=C(c1c(-c2ccccc2)nc2ncccn12)N1CCCC[C@H]1COc1ccc(C(F)(F)F)cn1` [Example 47], the values for the inhibition at 1 µM in test [1] and in test [2] were 59.5% and 1.2%, respectively.

Take `O=C(c1c(-c2ccccc2)nc2ncccn12)N1CCC[C@H]1COc1ccc(C(F)(F)F)cn1` [Example 48]: the results for the inhibition at 1 µM in test [1] and in test [2] were 18.9% and -1.1%, respectively.

With `O=C(c1c(-c2ccccc2)nc2ccc(F)cn12)N1CCC[C@H]1COc1ccc(C(F)(F)F)cn1` [Example 51], in test [1], the IC50 was 80 nM, the inhibition at 1 µM worked out at 88.1% and the Kb was 17 nM. Further, the inhibition at 1 µM in test [2] came out at 46.5%.

In the case of `O=C(c1c(-c2ccccc2)nc2cc(F)ccn12)N1CCC[C@H]1COc1ccc(C(F)(F)F)cn1` [Example 52], in test [1], the IC50 came out at 327 nM, the inhibition at 1 µM stood at 79.2% and the Kb is 69 nM. Moreover, the inhibition at 1 µM in test [2] amounted to 43.3%.
